Measured values as given in patent publication US5015639A, “Substituted benzazepines, their preparation and pharmaceutical compositions containing them” (Schering Corporation, priority 1989, dated 1991).

biological target: T1, dopamine D-1 receptor (Rattus norvegicus, UniProt P18901); assay: Competitive inhibition assay vs. 3H-SCH 23390 (dopamine D-1 receptor binding); set-up: species or system Male Sprague-Dawley rat (striatal tissue); conditions: rat striatal homogenate, 0.3 nM 3H-SCH 23390, pH 7.4, 37° C., 15 min; read-out: Ki vs. 3H-SCH 23390
T1 construct: Striatal tissue was excised, pooled, and homogenized; tissue Charles River Breeding Laboratories, Mass; (animals); host or cells: striatum of male Sprague-Dawley rats, washed membrane pellet
T1 sequence (P18901 whole entry): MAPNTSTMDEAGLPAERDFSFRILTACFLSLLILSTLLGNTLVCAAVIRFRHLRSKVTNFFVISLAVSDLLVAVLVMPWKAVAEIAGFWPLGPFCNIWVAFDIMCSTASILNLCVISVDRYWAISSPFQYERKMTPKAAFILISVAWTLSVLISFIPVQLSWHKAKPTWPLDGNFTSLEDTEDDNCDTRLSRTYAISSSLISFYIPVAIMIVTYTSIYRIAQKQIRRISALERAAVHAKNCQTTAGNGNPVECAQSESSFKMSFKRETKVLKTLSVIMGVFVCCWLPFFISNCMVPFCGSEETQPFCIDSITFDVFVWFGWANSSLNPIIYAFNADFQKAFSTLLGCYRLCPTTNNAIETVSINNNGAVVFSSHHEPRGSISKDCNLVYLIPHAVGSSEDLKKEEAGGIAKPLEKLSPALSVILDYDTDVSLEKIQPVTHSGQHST
Experimental: (§1) Many compounds capable of effecting reproducible physiological changes in neural tissues are believed to operate by binding at one or more receptor sites.
(§2) Tritiated SCH 23390 and tritiated spiperone (a potent D-2 ligand) were obtained as described in the Billard et al. reference supra and serially diluted in 0.05 M Tris buffer, pH 7.4, as required. A compound of the invention is diluted in 0.05 M Tris buffer, pH 7.4, as required.
(§3) Male Sprague-Dawley rats (200 to 250 g) from Charles River Breeding Laboratories, Mass. were used to obtain brain tissue. The rats were humanely sacrificed and their brains removed and placed on ice. Striatal tissue was excised, pooled, and homogenized (Brinkman Polytron, 10 sec) in 100 volumes (w/v) of ice cold 50 mM Tris buffer, pH 7.4 (at 25° C.). The homogenate was centrifuged at 20,000 xg for 10 min. The resultant pellet was rehomogenized in Tris buffer and centrifuged again. The final pellet was resuspended in 50 mM Tris buffer pH 7.4 containing 120 mM NaCl, 5 mM KCl, 2 mM CaCl2, and 1 mM MgCl2.
(§4) Polypropylene incubation tubes received 100 μl of the individual test compounds at various concentrations dissolved or suspended in 0.05 M Tris, pH 7.4 containing 4 mg/ml methylcellulose, 100 μl of a solution of ^3 H-SCH 23390 in Tris buffer (final reaction mixture concentration =0.3 nM) or 100 μl of a solution of 3H-spiperone in Tris buffer (final concentration =0.2 nM) and 800 μl of tissue suspension (ca. 3 mg/assay). Tubes were incubated at 37° C. for 15 minutes and rapidly vacuum filtered through Whatman GF/B filters and rinsed 4 times with 4 ml of ice cold 50 mM Tris buffer, pH 7.4. The filters were transferred to scintillation vials, equilibated with 10 ml of scintillant (Scintosol, Isolab, Inc.) for 16 hours at 25° C. and the radioactivity determined in a liquid scintillation counter. Ki values were determined as described by Billard et al. using the relationship Ki =IC50 /(1+([L]/KD)) wherein IC50 =concentration of test drug necessary to displace 50% of specifically bound ^3 H-Sch 23390, [L]=concentration of radioligand used in the assay, and KD =dissociation constant.

Row | Ki | SMILES
1 | 11 nM | CN1CCc2cc(Cl)c(O)cc2C(n2cccc2)C1 (stereo not shown) [Compound 13, 8-chloro-5-(1-pyrrolyl)-3-methyl-2,3,4,5-tetrahydro-lH-3-benzazepine-7-ol]
2 | 6 nM | C=CCC1CN(C)CCc2cc(Cl)c(O)cc21 (stereo not shown) [Compound 14, 8-chloro-5-allyl-3-methyl-2,3,4,5-tetrahydro-lH-3-benzazepine-7-ol]
3 | 133 nM | CCOC(=O)Oc1cc2c(cc1Cl)CCN(C)CC2C1CCCCC1 (stereo not shown) [Compound 16, 8-chloro-7-(ethoxy-formyloxy)-5-cyclohexyl-3-methyl-2,3,4,5-tetrahydro-lH-3-benzazepine]
4 | 84 nM | C=CCC1CN(C)CCc2cc(Cl)c(OC(=O)C(C)C)cc21 (stereo not shown) [Compound 17, 8-chloro-7-(isopropyl-formyloxy)-5-allyl-3-methyl-2,3,4,5-tetrahydro-lH-3-benzazepine]
5 | 240 nM | C=CCC1CN(C)CCc2cc(Cl)c(OCOC(=O)C(C)(C)C)cc21 (stereo not shown) [Compound 20, 8-chloro-7-(t-butyryloxy-methoxy)-5-allyl-3-methyl-2,3,4,5-tetrahydro-lH-3-benzazepine]
6 | 1.1 nM | CN1CCc2cc(Cl)c(O)cc2C(C2C=CCCC2)C1 (stereo not shown) [HO CH3 2-cyclohexenyl H, 8-chloro-5-(2-cyclohexenyl)-3-methyl-2,3,4,5-tetrahydro-lH-3-benzazepine-7-ol]
7 | 1100 nM | CN(C)CCCC1CN(C)CCc2cc(Cl)c(O)cc21 (stereo not shown) [HO CH3 (CH2)3 N(CH3)2 H, 8-chloro-5-(N,N-dimethylaminopropyl)-3-methyl-2,3,4,5-tetrahydro-lH-3-benzazepine-7-ol]
8 | 73 nM | CN1CCc2cc(Cl)c(O)cc2C(=Cc2ccccc2)C1 [HO CH3 CHPh]
9 | 33 nM | CCSC1CN(C)CCc2cc(Cl)c(O)cc21 (stereo not shown) [HO CH3 SC2 H5 H, 8-chloro-5-ethylthio-3-methyl-2,3,4,5-tetrahydro-lH-3-benzazepine-7-ol]
10 | 38 nM | CN1CCc2cc(Cl)c(O)cc2C(OC2CCCCC2)C1 (stereo not shown) [HO CH3 cyclohexyloxy H, 8-chloro-5-cyclohexyloxy-3-methyl-2,3,4,5-tetrahydro-lH-3-benzazepine-7-ol]

Row | SMILES | Ki
11 | C=CCC1CN(C)CCc2cc(Cl)c(OC(=O)COC)cc21 (stereo not shown) [Compound 18, 8-chloro-7-(methoxy-acetoxy)-5-allyl-3-methyl-2,3,4,5-tetrahydro-lH-3-benzazepine] | 10.3 nM
12 | CC(=O)Oc1cc2c(cc1Cl)CCN(C)CC2CC=C(C)C (stereo not shown) [Compound 19, 8-chloro-7-acetoxy-5-(3-methyl-2-butenyl)-3-methyl-2,3,4,5-tetrahydro-lH-3-benzazepine] | 17 nM

biological target: T2, D-2 receptor (Rattus norvegicus, UniProt P61169); assay: Competitive inhibition assay vs. 3H-spiperone (D-2 receptor binding); set-up: species or system Male Sprague-Dawley rat (striatal tissue); conditions: rat striatal homogenate, 0.2 nM 3H-spiperone, pH 7.4, 37° C., 15 min
T2 construct: Striatal tissue was excised, pooled, and homogenized; tissue Charles River Breeding Laboratories, Mass; (animals); host or cells: striatum of male Sprague-Dawley rats, washed membrane pellet
T2 sequence (P61169 whole entry): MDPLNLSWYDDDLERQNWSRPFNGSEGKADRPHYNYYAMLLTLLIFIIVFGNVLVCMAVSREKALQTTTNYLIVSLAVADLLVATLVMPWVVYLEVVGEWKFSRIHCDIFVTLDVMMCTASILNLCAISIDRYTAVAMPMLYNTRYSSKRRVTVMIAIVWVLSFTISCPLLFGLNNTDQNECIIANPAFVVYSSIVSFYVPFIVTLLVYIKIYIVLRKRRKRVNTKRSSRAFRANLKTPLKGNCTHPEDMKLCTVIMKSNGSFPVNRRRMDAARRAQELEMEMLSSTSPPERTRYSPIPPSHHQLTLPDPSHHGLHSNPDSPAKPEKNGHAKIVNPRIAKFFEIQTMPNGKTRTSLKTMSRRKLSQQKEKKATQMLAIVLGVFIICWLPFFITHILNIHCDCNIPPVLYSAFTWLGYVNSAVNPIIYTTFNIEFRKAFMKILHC
Experimental: as §1, §2, §3, §4

Row | Ki | SMILES
13 | 16100 nM | CN1CCc2cc(Cl)c(O)cc2C(n2cccc2)C1 (stereo not shown) [Compound 13, 8-chloro-5-(1-pyrrolyl)-3-methyl-2,3,4,5-tetrahydro-lH-3-benzazepine-7-ol]
14 | 170 nM | C=CCC1CN(C)CCc2cc(Cl)c(O)cc21 (stereo not shown) [Compound 14, 8-chloro-5-allyl-3-methyl-2,3,4,5-tetrahydro-lH-3-benzazepine-7-ol]
15 | 3330 nM | CCOC(=O)Oc1cc2c(cc1Cl)CCN(C)CC2C1CCCCC1 (stereo not shown) [Compound 16, 8-chloro-7-(ethoxy-formyloxy)-5-cyclohexyl-3-methyl-2,3,4,5-tetrahydro-lH-3-benzazepine]
16 | 3450 nM | C=CCC1CN(C)CCc2cc(Cl)c(OC(=O)C(C)C)cc21 (stereo not shown) [Compound 17, 8-chloro-7-(isopropyl-formyloxy)-5-allyl-3-methyl-2,3,4,5-tetrahydro-lH-3-benzazepine]
17 | 2620 nM | C=CCC1CN(C)CCc2cc(Cl)c(OCOC(=O)C(C)(C)C)cc21 (stereo not shown) [Compound 20, 8-chloro-7-(t-butyryloxy-methoxy)-5-allyl-3-methyl-2,3,4,5-tetrahydro-lH-3-benzazepine]
18 | 135 nM | CN1CCc2cc(Cl)c(O)cc2C(C2C=CCCC2)C1 (stereo not shown) [HO CH3 2-cyclohexenyl H, 8-chloro-5-(2-cyclohexenyl)-3-methyl-2,3,4,5-tetrahydro-lH-3-benzazepine-7-ol]
19 | > 100000 nM | CN(C)CCCC1CN(C)CCc2cc(Cl)c(O)cc21 (stereo not shown) [HO CH3 (CH2)3 N(CH3)2 H, 8-chloro-5-(N,N-dimethylaminopropyl)-3-methyl-2,3,4,5-tetrahydro-lH-3-benzazepine-7-ol]
20 | 705 nM | CN1CCc2cc(Cl)c(O)cc2C(=Cc2ccccc2)C1 [HO CH3 CHPh]
21 | 2610 nM | CCSC1CN(C)CCc2cc(Cl)c(O)cc21 (stereo not shown) [HO CH3 SC2 H5 H, 8-chloro-5-ethylthio-3-methyl-2,3,4,5-tetrahydro-lH-3-benzazepine-7-ol]
22 | 10100 nM | CN1CCc2cc(Cl)c(O)cc2C(OC2CCCCC2)C1 (stereo not shown) [HO CH3 cyclohexyloxy H, 8-chloro-5-cyclohexyloxy-3-methyl-2,3,4,5-tetrahydro-lH-3-benzazepine-7-ol]

Row | SMILES | Ki
23 | C=CCC1CN(C)CCc2cc(Cl)c(OC(=O)COC)cc21 (stereo not shown) [Compound 18, 8-chloro-7-(methoxy-acetoxy)-5-allyl-3-methyl-2,3,4,5-tetrahydro-lH-3-benzazepine] | 566 nM
24 | CC(=O)Oc1cc2c(cc1Cl)CCN(C)CC2CC=C(C)C (stereo not shown) [Compound 19, 8-chloro-7-acetoxy-5-(3-methyl-2-butenyl)-3-methyl-2,3,4,5-tetrahydro-lH-3-benzazepine] | 955 nM

tested on: conditioned avoidance response (CAR); assay: Conditioned avoidance suppression in rats (Rat CAR); assay type: in vivo; conditions: po, lowest dose that significantly (P<0.05) reduced avoidance responding, read-out: Rat CAR, minimal effective dose (MED)
Experimental: N. Y. Acad. Sci. 66, 740 (1957)}. A series of experiments was carried out to assess the ability of the compounds of this invention to suppress the conditioned avoidance response (CAR) in rats.
Rats were required to jump onto a platform located 6.75 inches (17.15 cm) above the grid floor of an experimental chamber in response to a 5-second tone to avoid a 10-second foot shock (0.6 ma). Each experimental session consisted of 20 such trials presented at 30-second intervals. A correct CAR is scored whenever the rat jumps onto the platform during the tone (prior to foot shock). An escape response is scored when the rat jumps onto the platform during a shock. A response failure is defined as the lack of an escape response during the 10-second shock period.
Groups of 6-8 rats were trained in two consecutive days (total of 40 trials). Rats that reached criterion on day 2 (correct CARs on 16 or more of the 20 trials) were treated with either a test drug or vehicle on day 3. Suppression of CAR was analyzed statistically using Student's t-test comparing the performances of drug-treated to vehicle-treated rats.

Row | SMILES | minimal effective dose
25 | CN1CCc2cc(Cl)c(O)cc2C(n2ccnc2)C1 (stereo not shown) [Compound 7] | > 30 mg/kg
26 | CN1CCc2cc(Cl)c(O)cc2C(n2cccc2)C1 (stereo not shown) [Compound 13, 8-chloro-5-(1-pyrrolyl)-3-methyl-2,3,4,5-tetrahydro-lH-3-benzazepine-7-ol] | > 30 mg/kg
27 | C=CCC1CN(C)CCc2cc(Cl)c(O)cc21 (stereo not shown) [Compound 14, 8-chloro-5-allyl-3-methyl-2,3,4,5-tetrahydro-lH-3-benzazepine-7-ol] | > 30 mg/kg
28 | CCOC(=O)Oc1cc2c(cc1Cl)CCN(C)CC2C1CCCCC1 (stereo not shown) [Compound 16, 8-chloro-7-(ethoxy-formyloxy)-5-cyclohexyl-3-methyl-2,3,4,5-tetrahydro-lH-3-benzazepine] | > 30 mg/kg
29 | C=CCC1CN(C)CCc2cc(Cl)c(OC(=O)C(C)C)cc21 (stereo not shown) [Compound 17, 8-chloro-7-(isopropyl-formyloxy)-5-allyl-3-methyl-2,3,4,5-tetrahydro-lH-3-benzazepine] | > 30 mg/kg
30 | C=CCC1CN(C)CCc2cc(Cl)c(OC(=O)COC)cc21 (stereo not shown) [Compound 18, 8-chloro-7-(methoxy-acetoxy)-5-allyl-3-methyl-2,3,4,5-tetrahydro-lH-3-benzazepine] | 100 mg/kg
31 | CC(=O)Oc1cc2c(cc1Cl)CCN(C)CC2CC=C(C)C (stereo not shown) [Compound 19, 8-chloro-7-acetoxy-5-(3-methyl-2-butenyl)-3-methyl-2,3,4,5-tetrahydro-lH-3-benzazepine] | > 30 mg/kg
32 | C=CCC1CN(C)CCc2cc(Cl)c(OCOC(=O)C(C)(C)C)cc21 (stereo not shown) [Compound 20, 8-chloro-7-(t-butyryloxy-methoxy)-5-allyl-3-methyl-2,3,4,5-tetrahydro-lH-3-benzazepine] | > 30 mg/kg

same assay, conditions: sc, lowest dose that significantly (P<0.05) reduced avoidance responding, read-out: Rat CAR, minimal effective dose (MED)

Row | SMILES | minimal effective dose
33 | CN1CCc2cc(Cl)c(O)cc2C(n2ccnc2)C1 (stereo not shown) [Compound 7] | > 10 mg/kg
34 | CN1CCc2cc(Cl)c(O)cc2C(n2cccc2)C1 (stereo not shown) [Compound 13, 8-chloro-5-(1-pyrrolyl)-3-methyl-2,3,4,5-tetrahydro-lH-3-benzazepine-7-ol] | 0.3 mg/kg
35 | C=CCC1CN(C)CCc2cc(Cl)c(O)cc21 (stereo not shown) [Compound 14, 8-chloro-5-allyl-3-methyl-2,3,4,5-tetrahydro-lH-3-benzazepine-7-ol] | 0.1 mg/kg
36 | CCOC(=O)Oc1cc2c(cc1Cl)CCN(C)CC2C1CCCCC1 (stereo not shown) [Compound 16, 8-chloro-7-(ethoxy-formyloxy)-5-cyclohexyl-3-methyl-2,3,4,5-tetrahydro-lH-3-benzazepine] | < 3 mg/kg
37 | C=CCC1CN(C)CCc2cc(Cl)c(OC(=O)C(C)C)cc21 (stereo not shown) [Compound 17, 8-chloro-7-(isopropyl-formyloxy)-5-allyl-3-methyl-2,3,4,5-tetrahydro-lH-3-benzazepine] | 0.3 mg/kg
38 | C=CCC1CN(C)CCc2cc(Cl)c(OC(=O)COC)cc21 (stereo not shown) [Compound 18, 8-chloro-7-(methoxy-acetoxy)-5-allyl-3-methyl-2,3,4,5-tetrahydro-lH-3-benzazepine] | < 0.3 mg/kg
39 | CC(=O)Oc1cc2c(cc1Cl)CCN(C)CC2CC=C(C)C (stereo not shown) [Compound 19, 8-chloro-7-acetoxy-5-(3-methyl-2-butenyl)-3-methyl-2,3,4,5-tetrahydro-lH-3-benzazepine] | < 1 mg/kg
40 | C=CCC1CN(C)CCc2cc(Cl)c(OCOC(=O)C(C)(C)C)cc21 (stereo not shown) [Compound 20, 8-chloro-7-(t-butyryloxy-methoxy)-5-allyl-3-methyl-2,3,4,5-tetrahydro-lH-3-benzazepine] | 0.1 mg/kg
